According to US11739098B2 (BRISTOL-MYERS SQUIBB COMPANY, priority 2017, dated 2023):

Experiments:
Format in all cases: cell-based
human TLR9 = target: T1, human TLR9 (Homo sapiens, UniProt Q9NR96); experiment: TLR9 inhibition reporter assay (HEK-Blue cells, SEAP reporter, ODN2006 stimulation); details: HEK-Blue cells overexpressing human TLR9, SEAP reporter, ODN2006 5 nM
T1 construct: host or cells: HEK-Blue cells (HEK293-derived reporter line)
T1 sequence (Q9NR96 26-1032): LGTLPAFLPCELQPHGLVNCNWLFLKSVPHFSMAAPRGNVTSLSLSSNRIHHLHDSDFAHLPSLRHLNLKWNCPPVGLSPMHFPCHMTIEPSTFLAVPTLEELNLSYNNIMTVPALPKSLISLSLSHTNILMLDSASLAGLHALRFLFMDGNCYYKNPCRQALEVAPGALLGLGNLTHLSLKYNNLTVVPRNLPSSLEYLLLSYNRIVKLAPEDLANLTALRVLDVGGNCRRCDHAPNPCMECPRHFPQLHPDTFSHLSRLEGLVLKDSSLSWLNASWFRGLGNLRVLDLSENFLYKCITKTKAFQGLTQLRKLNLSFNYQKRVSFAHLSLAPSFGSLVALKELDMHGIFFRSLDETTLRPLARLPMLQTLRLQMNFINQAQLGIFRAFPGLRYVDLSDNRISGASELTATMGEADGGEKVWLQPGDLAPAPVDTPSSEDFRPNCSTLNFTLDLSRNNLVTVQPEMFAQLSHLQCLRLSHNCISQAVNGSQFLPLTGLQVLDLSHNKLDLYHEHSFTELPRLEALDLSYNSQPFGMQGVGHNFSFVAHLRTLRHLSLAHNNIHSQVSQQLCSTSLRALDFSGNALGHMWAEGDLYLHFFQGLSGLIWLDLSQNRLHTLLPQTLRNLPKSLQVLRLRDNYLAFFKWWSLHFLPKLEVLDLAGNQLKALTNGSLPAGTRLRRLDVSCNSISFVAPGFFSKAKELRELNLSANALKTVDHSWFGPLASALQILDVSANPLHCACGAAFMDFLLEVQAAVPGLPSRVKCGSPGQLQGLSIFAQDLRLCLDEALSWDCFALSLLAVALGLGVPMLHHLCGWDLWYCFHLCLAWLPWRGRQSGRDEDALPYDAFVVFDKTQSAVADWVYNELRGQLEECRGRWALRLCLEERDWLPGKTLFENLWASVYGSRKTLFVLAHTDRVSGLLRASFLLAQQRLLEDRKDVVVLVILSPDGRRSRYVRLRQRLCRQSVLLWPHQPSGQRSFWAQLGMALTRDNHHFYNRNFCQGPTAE
Summary of the method: (§1)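 After 22 h at 37 °C, SEAP secretion was measured from human TLR7-, TLR8- or TLR9-expressing HEK-Blue reporter cells given compound (0.05 nM–50 μM) 30 min before agonist: 7.5 μM gardiquimod, 15.9 μM R848 or 5 nM ODN2006 respectively. Percent inhibition referenced to agonist-plus-DMSO and known-inhibitor wells.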

human TLR8 = target: T2, human TLR8 (Homo sapiens, UniProt Q9NR97); experiment: TLR8 inhibition reporter assay (HEK-Blue cells, SEAP reporter, R848 stimulation); details: HEK-Blue cells overexpressing human TLR8, SEAP reporter, R848 15.9 μM
T2 construct: host or cells: HEK-Blue cells (HEK293-derived reporter line)
T2 sequence (Q9NR97 27-1041): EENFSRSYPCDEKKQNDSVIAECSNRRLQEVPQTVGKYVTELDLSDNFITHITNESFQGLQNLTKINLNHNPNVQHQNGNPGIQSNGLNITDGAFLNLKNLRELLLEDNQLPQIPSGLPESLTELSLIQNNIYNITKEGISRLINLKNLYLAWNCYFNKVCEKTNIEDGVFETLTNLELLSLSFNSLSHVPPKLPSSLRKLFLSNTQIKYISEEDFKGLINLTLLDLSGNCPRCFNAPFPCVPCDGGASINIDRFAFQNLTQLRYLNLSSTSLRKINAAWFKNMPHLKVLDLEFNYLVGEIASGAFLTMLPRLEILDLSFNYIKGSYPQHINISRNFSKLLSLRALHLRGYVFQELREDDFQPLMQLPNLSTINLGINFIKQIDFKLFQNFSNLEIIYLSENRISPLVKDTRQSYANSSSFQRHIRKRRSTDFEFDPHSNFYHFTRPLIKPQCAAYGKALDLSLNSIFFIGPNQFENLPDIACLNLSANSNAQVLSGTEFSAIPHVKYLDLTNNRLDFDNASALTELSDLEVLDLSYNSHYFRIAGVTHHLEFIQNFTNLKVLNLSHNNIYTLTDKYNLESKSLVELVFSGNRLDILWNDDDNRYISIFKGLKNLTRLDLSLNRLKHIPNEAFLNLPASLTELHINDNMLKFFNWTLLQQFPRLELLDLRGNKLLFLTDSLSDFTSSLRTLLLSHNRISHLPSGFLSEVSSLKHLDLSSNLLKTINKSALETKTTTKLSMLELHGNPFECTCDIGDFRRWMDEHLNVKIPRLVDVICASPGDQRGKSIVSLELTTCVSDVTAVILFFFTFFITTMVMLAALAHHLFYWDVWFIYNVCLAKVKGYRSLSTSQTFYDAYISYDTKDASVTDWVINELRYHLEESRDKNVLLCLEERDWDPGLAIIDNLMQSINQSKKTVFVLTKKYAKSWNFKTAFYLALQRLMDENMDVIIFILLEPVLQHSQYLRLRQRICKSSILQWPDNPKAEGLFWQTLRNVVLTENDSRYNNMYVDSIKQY
Summary of the method: as §1

human TLR7 = target: T3, human TLR7 (Homo sapiens, UniProt Q9NYK1); experiment: TLR7 inhibition reporter assay (HEK-Blue cells, SEAP reporter, gardiquimod stimulation); details: HEK-Blue cells overexpressing human TLR7, SEAP reporter, gardiquimod 7.5 μM
T3 construct: host or cells: HEK-Blue cells (HEK293-derived reporter line)
T3 sequence (Q9NYK1 27-1049): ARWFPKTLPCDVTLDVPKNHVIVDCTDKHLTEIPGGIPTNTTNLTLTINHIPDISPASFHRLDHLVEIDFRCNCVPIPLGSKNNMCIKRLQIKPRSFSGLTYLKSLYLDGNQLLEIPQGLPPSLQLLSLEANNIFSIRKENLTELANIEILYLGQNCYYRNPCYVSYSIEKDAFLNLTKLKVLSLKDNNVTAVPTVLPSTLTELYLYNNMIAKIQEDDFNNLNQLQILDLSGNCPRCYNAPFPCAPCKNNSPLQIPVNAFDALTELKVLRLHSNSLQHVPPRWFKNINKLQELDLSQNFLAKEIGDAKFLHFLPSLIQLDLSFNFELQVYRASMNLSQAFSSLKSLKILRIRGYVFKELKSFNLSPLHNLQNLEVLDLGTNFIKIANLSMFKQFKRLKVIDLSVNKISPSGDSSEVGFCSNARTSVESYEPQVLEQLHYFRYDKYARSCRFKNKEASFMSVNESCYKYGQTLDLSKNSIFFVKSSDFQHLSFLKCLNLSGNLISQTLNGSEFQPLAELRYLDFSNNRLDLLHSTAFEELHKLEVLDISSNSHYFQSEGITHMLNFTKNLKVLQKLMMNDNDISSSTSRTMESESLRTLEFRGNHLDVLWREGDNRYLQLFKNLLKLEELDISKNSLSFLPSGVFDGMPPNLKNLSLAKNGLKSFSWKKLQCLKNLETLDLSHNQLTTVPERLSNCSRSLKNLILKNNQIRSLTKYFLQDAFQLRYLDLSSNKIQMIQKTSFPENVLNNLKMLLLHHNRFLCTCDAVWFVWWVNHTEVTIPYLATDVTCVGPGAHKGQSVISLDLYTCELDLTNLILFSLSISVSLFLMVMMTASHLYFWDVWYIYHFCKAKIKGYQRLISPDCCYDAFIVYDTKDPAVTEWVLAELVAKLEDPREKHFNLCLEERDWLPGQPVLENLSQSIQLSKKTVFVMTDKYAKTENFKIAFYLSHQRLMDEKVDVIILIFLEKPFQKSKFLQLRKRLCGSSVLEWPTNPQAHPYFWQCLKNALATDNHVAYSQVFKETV
Summary of the method: as §1

SMILES | IC50 (human TLR9) | IC50 (human TLR8) | IC50 (human TLR7)
CC(C)c1c(-c2cc(C(F)(F)F)c3nccn3c2)[nH]c2ccc(C3CCN(CC(=O)N(C)C)CC3)cc12 [Example 372, 2-(4-(3-isopropyl-2-(8-(trifluoromethyl)imidazo[1,2-a]pyridin-6-yl)-1H-indol-5-yl)piperidin-1-yl)-N,N-dimethylacetamide] | 1 to 50 µM | < 0.1 µM | < 0.1 µM
CC(C)c1c(-c2ccnc3[nH]ncc23)[nH]c2ccc(C3CCN(C(=O)CN4CCN(c5ccncc5)CC4)CC3)cc12 [Example 591, 1-(4-(3-isopropyl-2-(1H-pyrazolo[3,4-b]pyridin-4-yl)-1H-indol-5-yl)piperidin-1-yl)-2-(4-(pyridin-4-yl)piperazin-1-yl)ethan-1-one] | 0.1 to 1 µM | < 0.1 µM | < 0.1 µM
CNCC(=O)N1CCC(c2ccc3[nH]c(-c4cc(C)nc5ccccc45)c(C(C)C)c3c2)CC1 [Example 534, 1-(4-(3-isopropyl-2-(2-methylquinolin-4-yl)-1H-indol-5-yl)piperidin-1-yl)-2-(methylamino)ethan-1-one] | 1 to 50 µM | < 0.1 µM | < 0.1 µM
Cc1cc(-c2[nH]c3ccc(C4CCNCC4)cc3c2C(C)C)cn2nnnc12 [Example 75, 6-(3-isopropyl-5-(piperidin-4-yl)-1H-indol-2-yl)-8-methyltetrazolo[1,5-a]pyridine] | 0.1 to 1 µM | < 0.1 µM | < 0.1 µM
CC(C)c1c(-c2ccnc3[nH]ncc23)[nH]c2ccc(C3CCN(C(=O)CN4CCCN(C)CC4)CC3)cc12 [Example 577, 1-(4-(3-isopropyl-2-(1H-pyrazolo[3,4-b]pyridin-4-yl)-1H-indol-5-yl)piperidin-1-yl)-2-(4-methyl-1,4-diazepan-1-yl)ethan-1-one] | 0.1 to 1 µM | < 0.1 µM | < 0.1 µM
CC(C)c1c(-c2cn(C)c3ncccc23)[nH]c2ccc(C3CCN(CC(=O)N4CCOCC4)CC3)cc12 [Example 294, 2-(4-(3-isopropyl-2-(1-methyl-1H-pyrrolo[2,3-b]pyridin-3-yl)-1H-indol-5-yl)piperidin-1-yl)-1-morpholinoethan-1-one] | 1 to 50 µM | < 0.1 µM | < 0.1 µM
CC(C)c1c(-c2ccc3nncn3n2)[nH]c2ccc(C3CCNCC3)cc12 [Example 185, 6-(3-isopropyl-5-(piperidin-4-yl)-1H-indol-2-yl)-[1,2,4] triazolo[4,3-b]pyridazine] | 1 to 50 µM | 0.1 to 1 µM | 0.1 to 1 µM
Cc1c(-c2[nH]c3ccc(C4CCN(CC(=O)N(C)C)CC4)cc3c2C(C)C)cn2nnnc2c1C [Example 309, 2-(4-(2-(7,8-dimethyltetrazolo[1,5-a]pyridin-6-yl)-3-isopropyl-1H-indol-5-yl)piperidin-1-yl)-N,N-dimethylacetamide] | 1 to 50 µM | < 0.1 µM | < 0.1 µM
CC(C)c1c(-c2cc(Cl)cc3nccn23)[nH]c2ccc(C3CCNCC3)cc12 [Example 127, 7-chloro-5-(3-isopropyl-5-(piperidin-4-yl)-1H-indol-2-yl)imidazo[1,2-a]pyridine] | 0.1 to 1 µM | < 0.1 µM | < 0.1 µM
Cc1nc2cc(-c3[nH]c4ccc(C5CCN(C(=O)CC(C)(C)O)CC5)cc4c3C(C)C)ccn2n1 [Example 601, 3-hydroxy-1-(4-(3-isopropyl-2-(2-methyl-[1,2,4]triazolo[1,5-a]pyridin-7-yl)-1H-indol-5-yl)piperidin-1-yl)-3-methylbutan-1-one] | 1 to 50 µM | > 3.13 µM | < 0.1 µM
CC(C)c1c(-c2ccc3ncccc3c2)[nH]c2ccc(C3CCNCC3)cc12 [Example 190, 6-(3-isopropyl-5-(piperidin-4-yl)-1H-indol-2-yl)quinoline] | 1 to 50 µM | 1 to 50 µM | < 0.1 µM
CC(C)c1c(-c2cnc3ncnn3c2)[nH]c2ccc(C3CCN(C4CCS(=O)(=O)CC4)CC3)cc12 [Example 798, 4-(4-(2-([1,2,4]triazolo[1,5-a]pyrimidin-6-yl)-3-isopropyl-1H-indol-5-yl)piperidin-1-yl)tetrahydro-2H-thiopyran 1,1-dioxide] | 1 to 50 µM | < 0.1 µM | < 0.1 µM
Cc1cc(-c2[nH]c3ccc(C4CCN(CC(C)(C)O)CC4)cc3c2C(C)C)cn2ccnc12 [Example 774, 1-(4-(3-isopropyl-2-(8-methylimidazo[1,2-a]pyridin-6-yl)-1H-indol-5-yl)piperidin-1-yl)-2-methylpropan-2-ol] | 0.1 to 1 µM | < 0.1 µM | < 0.1 µM
CC(C)c1c(-c2ccc(C#N)c3ncccc23)[nH]c2ccc(C3CCN(C4COC4)CC3)cc12 [Example 714, 5-(3-isopropyl-5-(1-(oxetan-3-yl)piperidin-4-yl)-1H-indol-2-yl)quinoline-8-carbonitrile] | > 50 µM | < 0.1 µM | < 0.1 µM
